Data as given in patent US20160115540A1, “PRODRUGS AND DRUGS” (Biogen MA Inc., priority 2013, published 2016).
Where a name gives a salt, the structure may show the parent alone.

Test system: cortex
Assay: Transcriptional profiling on Affymetrix GeneChips, single dose, naïve mice: cortex
Assay type: in vivo, C57BL/6 mice
Conditions: for Number of differentially expressed genes identified: Cortex: Naïve, Single Dose
Experimental: Treated mice were sacrificed at 2, 7, or 12 hours. Tissues (liver, spleen, kidney, jejunum, cortex, hippocampus, striatum and whole blood) were collected and analyzed by transcriptional profiling on mouse Affymetrix GeneChips.
Tissues (liver, spleen, kidney, jejunum, cortex, hippocampus, striatum and whole blood) were collected and analyzed by transcriptional profiling on mouse Affymetrix GeneChips.
Animals were exposed to CO2 and whole blood collected via cardiac puncture. Two 100 μl aliquots of whole blood were collected in 1.5 mL microcentrifuge tubes and snap frozen in liquid nitrogen. Peripheral (liver, spleen, kidney and jejunum) and CNS brain (cerebellum, hippocampus, striatum and cortex) tissues were harvested and snap frozen in liquid nitrogen, with special care taken to collect tissues of similar size and from the same location. All samples were stored at −80° C. until RNA extraction was conducted.
For RNA preparation, frozen tissues were placed in 2 mL RNAse-free 96-well blocks with 1.5 mL QIAzol Lysis Reagent (QIAgen) and a 3.2 mm stainless steel bead (BioSpec Products, Bartlesville, Okla.). Tissues were disrupted for four cycles of 45 seconds in a Mini-Beadbeater (Biospec Products). RNA was extracted in chloroform and the aqueous phase was mixed with an equal volume of 70% ethanol. Extracted RNA was applied to RNeasy 96 plates and purified by the spin method according to the manufacturer's protocol (RNeasy 96 Universal Tissue Protocol, QIAgen, Hilden Germany).
Automated sample amplifications and biotin labelings were carried out using the NuGEN Ovation RNA Amplification system V2 (Cat #3100), Ovation WB reagent (Cat #1300) and Encore Biotin module (Cat #4200) (NuGEN Technologies, Inc, San Carlos, Calif.) according to manufacturer's recommendations using an Arrayplex automated liquid handler (Beckman Coulter, Indianapolis, Ind.). Two micrograms of biotin labeled sscDNA probe were hybridized to Affymetrix GeneChip Affymetrix HT_MG-430_PM plate arrays with modified conditions as described in Allaire et al. Washing and staining of the hybridized arrays were completed as described in the GeneChip Expression analysis technical manual for HT plate arrays using the Genechip® Array Station (Affymetrix, Santa Clara, Calif.) with modifications as described in Allaire et al. The processed GeneChip® plate arrays were scanned using GeneTitan scanner (Affymetrix, Santa Clara, Calif.).
Affymetrix scans were subject to quality control (QC) measures. These tests included a visual inspection of the distribution of raw signal intensities and an assessment of RNA degradation, relative log expression (RLE), and normalized unsealed standard error (NUSE). All sample scans that passed these QC metrics were included in the analysis.
All CEL files were subjected to GC-content-based Robust Multi-array Average (GCRMA) normalization (version 2.20.0) (Irizarry R A, et al. Nucleic Acids Res 2003; 31:e15; Li C, et al. Genome Biol 2001; 2:[…]0032). Expression levels were log (base 2) transformed.
All calculations and analyses were carried out using R (version 2.11.1) and Bioconductor computational tools (Gentleman R. Springer Science+Business Media 2005).

[1] = 100 mpk, vs Vehicle, 2 h after last dosing
[2] = 100 mpk, vs Vehicle, 7 h after last dosing
[3] = 100 mpk, vs Vehicle, 12 h after last dosing
[4] = cortex, 2 hr after single 100 mg/kg oral dose
[5] = cortex, 7 hr after single 100 mg/kg oral dose

COC(=O)/C=C/C(=O)OC [DMF, dimethyl fumarate]
Number of genes, DMF Only / MMF Only (Cortex): 2 | Fgfbp1 (1419086_PM_at) differential expression (Cortex, 7 hr): 1.54 | Nqo1 (1423627_PM_at) differential expression (Cortex, 7 hr): 1.50 | Number of differentially expressed genes identified: Cortex (100 mpk DMF-vs-100 mpk MMF, 2 h after last dosing): 0 | Number of differentially expressed genes identified: Cortex (100 mpk DMF-vs-100 mpk MMF, 7 h after last dosing): 0 | Number of differentially expressed genes identified: Cortex (100 mpk DMF-vs-100 mpk MMF, 12 h after last dosing): 0 | Number of differentially expressed genes identified: Cortex [1]: 2 | Number of differentially expressed genes identified: Cortex [2]: 2 | Number of differentially expressed genes identified: Cortex [3]: 0 | differentially expressed genes (cortex, 100DMF-vs-100MMF, 2 h): None | differentially expressed genes (cortex, 100DMF-vs-100MMF, 7 h): None | differentially expressed genes (cortex, 100DMF-vs-100MMF, 12 h): None | FC AI314604 (1442075_PM_at) (cortex, 100DMF-vs-Veh, 2 h): 1.57 | FC Ciapin1 (1448140_PM_at) (cortex, 100DMF-vs-Veh, 2 h): 1.55 | FC Fgfbp1 1419086_PM_at (cortex, 100DMF-vs-Veh, 7 h): 1.54 | FC Nqo1 (1423627_PM_at) (cortex, 100DMF-vs-Veh, 7 h): 1.50 | differentially expressed genes (cortex, 100DMF-vs-Veh, 12 h): None

COC(=O)/C=C/C(=O)O [MMF, monomethyl fumarate]
Number of genes, DMF Only / MMF Only (Cortex): 14 | Arnt2 (1420670_PM_at) differential expression (Cortex, 2 hr): −1.66 | Atrn (1421166_PM_at) differential expression (Cortex, 2 hr): −1.62 | Chka (1442277_PM_at) differential expression (Cortex, 2 hr): −1.53 | Ednrb (1423594_PM_a_at) differential expression (Cortex, 2 hr): −1.53 | Extl3 (1421339_PM_at) differential expression (Cortex, 2 hr): −1.57 | Mkln1 (1416734_PM_at) differential expression (Cortex, 2 hr): −1.85 | Plekhm3 (1438108_PM_at) differential expression (Cortex, 2 hr): −1.50 | Ptk2 (1430827_PM_a_at) differential expression (Cortex, 2 hr): −1.53 | Ptprg (1456070_PM_at) differential expression (Cortex, 2 hr): −1.83 | Speer4b (1429992_PM_at) differential expression (Cortex, 2 hr): −1.60 | Tanc2 (1443123_PM_at) differential expression (Cortex, 2 hr): −1.72 | Top2b (1448458_PM_at) differential expression (Cortex, 2 hr): −1.51 | Trak2 (1429607_PM_at) differential expression (Cortex, 2 hr): −1.57 | Aox1 (1419435_PM_at) differential expression (Cortex, 7 hr): 1.65 | Fgfbp1 (1419086_PM_at) differential expression (Cortex, 7 hr): 1.62 | Aox1 (1419435_PM_at) differential expression (Cortex, 12 hr): 1.54 | Number of differentially expressed genes identified: Cortex [1]: 9 | Number of differentially expressed genes identified: Cortex [2]: 2 | Number of differentially expressed genes identified: Cortex [3]: 1 | FC Arnt2 (1420670_PM_at) (cortex, 100MMF-vs-Veh, 2 h): −1.66 | FC Atrn (1421166_PM_at) (cortex, 100MMF-vs-Veh, 2 h): −1.62 | FC Ednrb (1423594_PM_a_at) (cortex, 100MMF-vs-Veh, 2 h): −1.53 | FC Mkln1 (1416734_PM_at) (cortex, 100MMF-vs-Veh, 2 h): −1.85 | FC Plekhm3 (1438108_PM_at) (cortex, 100MMF-vs-Veh, 2 h): −1.50 | FC Ptk2 (1430827_PM_a_at) (cortex, 100MMF-vs-Veh, 2 h): −1.53 | FC Tanc2 (1443123_PM_at) (cortex, 100MMF-vs-Veh, 2 h): −1.72 | FC Top2b (1448458_PM_at) (cortex, 100MMF-vs-Veh, 2 h): −1.51 | FC Trak2 (1429607_PM_at) (cortex, 100MMF-vs-Veh, 2 h): −1.57 | FC Aox1 (1419435_PM_at) (cortex, 100MMF-vs-Veh, 7 h): 1.65 | FC Fgfbp1 1419086_PM_at (cortex, 100MMF-vs-Veh, 7 h): 1.62 | FC Aox1 (1419435_PM_at) (cortex, 100MMF-vs-Veh, 12 h): 1.54 | Arnt2 mRNA fold change vs vehicle [4]: −1.66 | Atrn mRNA fold change vs vehicle [4]: −1.62 | Chka mRNA fold change vs vehicle [4]: −1.53 | Ednrb mRNA fold change vs vehicle [4]: −1.53 | Extl3 mRNA fold change vs vehicle [4]: −1.57 | Mkln1 mRNA fold change vs vehicle [4]: −1.85 | Plekhm3 mRNA fold change vs vehicle [4]: −1.50 | Ptk2 mRNA fold change vs vehicle [4]: −1.53 | Ptprg mRNA fold change vs vehicle [4]: −1.83 | Speer4b mRNA fold change vs vehicle [4]: −1.60 | Tanc2 mRNA fold change vs vehicle [4]: −1.72 | Top2b mRNA fold change vs vehicle [4]: −1.51 | Trak2 mRNA fold change vs vehicle [4]: −1.57 | Aox1 mRNA fold change vs vehicle [5]: 1.65 | Fgfbp1 mRNA fold change vs vehicle [5]: 1.62 | Aox1 mRNA fold change vs vehicle (cortex, 12 hr after single 100 mg/kg oral dose): 1.54
